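48-hour exposure; five concentrations; linearly interpolated endpoints. GI50: concentration for 50% inhibition of growth.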 Activity calls are given as the source filed them. No stated cut-off is given here; in the data, active = GI50 up to about 1.1 µM and inactive = higher.

Some test systems named below: NCI-H460; MDA-MB-435; CCRF-CEM; SK-MEL-5; OVCAR-3; SW-620; NCI/ADR-RES; K562; MOLT-4; ACHN; PC-3; SF-295; HL-60; OVCAR-8; SF-539; A498; EKVX; NCI-H226; MDA-MB-231; SR.
What all share (assay): NCI tumour cell line growth inhibition, 48 h

In the case of `c1ccc2cc(NCNc3ccc4ccccc4c3)ccc2c1`, the GI50 was 13.4 µM (inactive) in the experiment on NCI-H460; 1.78 µM (inactive) in the experiment with MDA-MB-435; 11.8 µM (inactive) in the experiment on CCRF-CEM; 6.25 µM (inactive) with SK-MEL-5; 5.69 µM (inactive) in the experiment on OVCAR-3; 34.2 µM (inactive) in the experiment with SW-620. Moreover, the GI50 was 21.7 µM (inactive) with NCI/ADR-RES; 0.951 µM (active) with K562; 0.785 µM (active) in the experiment with MOLT-4; 16.3 µM (inactive) with ACHN; 15.5 µM (inactive) in the experiment with PC-3; 15.2 µM (inactive) in the experiment with SF-295. For the same compound, the GI50 with HL-60 was 0.893 µM (active); with OVCAR-8, 17.5 µM (inactive); with SF-539, 29.3 µM (inactive); with A498, 19.9 µM (inactive); with EKVX, 14.6 µM (inactive); in the experiment with NCI-H226, 17.2 µM (inactive). Besides, the GI50 in the experiment on MDA-MB-231 was 2.51 µM (inactive); in the experiment on SR, 2.42 µM (inactive).

Regarding `Nc1ccn(C2CCC(CO)O2)c(=O)n1` (stereo not given), the GI50 in the experiment on NCI-H460 is > 100 µM (inactive); in the experiment with MDA-MB-435, > 1000 µM (inactive); with CCRF-CEM, 46.5 µM (inactive); in the experiment on SK-MEL-5, > 100 µM (inactive); with OVCAR-3 it was > 100 µM (inactive); in the experiment on SW-620, > 94.8 µM (inactive). Further, the GI50 with NCI/ADR-RES is 159 µM (inactive); with K562, > 100 µM (inactive); with MOLT-4 it was 63.8 µM (inactive); in the experiment on ACHN, 785 µM (inactive); with PC-3, > 1000 µM (inactive); in the experiment on SF-295, > 100 µM (inactive). The GI50 in the experiment with HL-60 is 698 µM (inactive); in the experiment on OVCAR-8, 156 µM (inactive); in the experiment on SF-539, > 100 µM (inactive); with A498 it was > 91.8 µM (inactive); in the experiment with EKVX, > 100 µM (inactive); with NCI-H226 it was > 93.5 µM (inactive). Moreover, the GI50 with MDA-MB-231 is > 1000 µM (inactive); with SR, 367 µM (inactive).

`CN(C)CC1CCC/C(=C\c2ccc(OC(=O)/C=C/c3ccc(Cl)cc3)cc2)C1=O` (stereo not given): the GI50 in the experiment on NCI-H460 is 8.02 µM (inactive); in the experiment with MDA-MB-435, 5.28 µM (inactive); with CCRF-CEM it was 1.06 µM (active); in the experiment on SK-MEL-5 it was 2.16 µM (inactive); in the experiment on OVCAR-3, 4.97 µM (inactive); with SW-620 it was 1.69 µM (inactive). Also, the GI50 is 7.43 µM (inactive) with NCI/ADR-RES; 1.23 µM (inactive) in the experiment on K562; 1.05 µM (active) in the experiment on MOLT-4; 2.43 µM (inactive) in the experiment with ACHN; 5.35 µM (inactive) in the experiment on PC-3; 7.6 µM (inactive) in the experiment on SF-295. Also, the GI50 in the experiment with HL-60 is 1.07 µM (active); in the experiment with OVCAR-8, 5.62 µM (inactive); in the experiment with SF-539, 2.57 µM (inactive); in the experiment with A498 it was 8.53 µM (inactive); in the experiment with EKVX, 7.14 µM (inactive); with NCI-H226 it was 11 µM (inactive). The values for the GI50 in the experiment with MDA-MB-231 and in the experiment with SR were 5.21 µM (inactive) and 1.09 µM (active), respectively.

For `Nc1nc2c(ncn2C2CCC(CO)O2)c(=O)n1C(=O)c1ccccc1` (stereo not given), the GI50 with NCI-H460, in the experiment on MDA-MB-435, in the experiment with CCRF-CEM, in the experiment on SK-MEL-5, in the experiment on OVCAR-3 and in the experiment with SW-620 was > 100 µM (inactive) throughout. Besides, the GI50 in the experiment with NCI/ADR-RES, in the experiment on K562, in the experiment with MOLT-4, with ACHN, in the experiment on PC-3 and in the experiment on SF-295 was > 100 µM (inactive) each time. The GI50 with HL-60, in the experiment with OVCAR-8, in the experiment on SF-539, in the experiment with A498, in the experiment with EKVX and in the experiment with NCI-H226 was > 100 µM (inactive) throughout. In addition, the GI50 in the experiment with MDA-MB-231 was > 100 µM (inactive); with SR it was 67.3 µM (inactive).

Turning to `CC(=O)Nc1ccc(S(=O)(=O)c2nnc(NC(C)=O)s2)cc1`, the GI50 in the experiment on NCI-H460, in the experiment on MDA-MB-435, with CCRF-CEM, in the experiment with SK-MEL-5, in the experiment on OVCAR-3 and with SW-620 was > 100 µM (inactive) in each case. In addition, the GI50 with NCI/ADR-RES is > 100 µM (inactive); with K562, > 100 µM (inactive); with MOLT-4, > 100 µM (inactive); with ACHN, > 100 µM (inactive); with PC-3 it was 0.401 µM (active); in the experiment with SF-295, 25.5 µM (inactive). The GI50 with HL-60, in the experiment on OVCAR-8, with SF-539, with A498, in the experiment on EKVX and in the experiment on NCI-H226 was > 100 µM (inactive) throughout. In addition, the GI50 in the experiment with MDA-MB-231 and in the experiment with SR was > 100 µM (inactive) throughout.

Consider `COc1cc(/C=C2\CC(C)C/C(=C\c3ccc(O)c(OC)c3)C2=O)ccc1O` (stereo not given), for which the GI50 in the experiment with NCI-H460 is 2.88 µM (inactive); in the experiment on MDA-MB-435 it was 2.32 µM (inactive); in the experiment with CCRF-CEM, 2.56 µM (inactive); in the experiment with SK-MEL-5 it was 1.82 µM (inactive); in the experiment with OVCAR-3, 2.8 µM (inactive); with SW-620, 2.24 µM (inactive). For the same compound, the GI50 in the experiment on NCI/ADR-RES was 17.5 µM (inactive); in the experiment with K562 it was 4.48 µM (inactive); in the experiment on MOLT-4 it was 2.29 µM (inactive); in the experiment with ACHN it was 3.13 µM (inactive); with PC-3, 4 µM (inactive); in the experiment with SF-295, 10.6 µM (inactive). The GI50 in the experiment with HL-60 was 2.98 µM (inactive); in the experiment on OVCAR-8, 9.2 µM (inactive); with SF-539 it was 3.12 µM (inactive); with A498, 2.52 µM (inactive); in the experiment on EKVX it was 13.8 µM (inactive); in the experiment on NCI-H226, 4.85 µM (inactive). Further, the GI50 in the experiment on MDA-MB-231 is 2.06 µM (inactive); with SR, 2.86 µM (inactive).

With `CCC1(O)CC(OC2CC(N(C)C)C(OC3CC(O)C(OC4CCC(=O)C(C)O4)C(C)O3)C(C)O2)c2c(cc3c(c2O)C(=O)c2c(O)ccc(O)c2C3=O)C1C(=O)OC` (stereo not given), the GI50 in the experiment with NCI-H460 was < 0.01 µM (active); in the experiment with MDA-MB-435, < 0.0122 µM (active); in the experiment with CCRF-CEM it was < 0.01 µM (active); in the experiment with SK-MEL-5 it was < 0.01 µM (active); with OVCAR-3, 0.0101 µM (active); in the experiment on SW-620 it was < 0.01 µM (active). For the same compound, the GI50 in the experiment on NCI/ADR-RES, with K562, in the experiment on MOLT-4, in the experiment with ACHN, in the experiment with PC-3 and in the experiment on SF-295 was < 0.01 µM (active) in each case. For the same compound, the GI50 in the experiment with HL-60, in the experiment on OVCAR-8, in the experiment with SF-539, in the experiment with A498, in the experiment with EKVX and in the experiment on NCI-H226 was < 0.01 µM (active) in each case. Also, the values for the GI50 in the experiment with MDA-MB-231 and in the experiment on SR were < 0.0132 µM (active) and < 0.01 µM (active), respectively.

For the compound `CC(C)C[C@H](NC(=O)[C@H](Cc1ccc(F)cc1)NC(=O)c1ccccn1)B(O)O`, the GI50 in the experiment with NCI-H460, in the experiment on MDA-MB-435, in the experiment on CCRF-CEM, in the experiment on SK-MEL-5, in the experiment with OVCAR-3 and in the experiment on SW-620 was < 0.01 µM (active) in each case. For the same compound, the GI50 in the experiment on NCI/ADR-RES, in the experiment on K562, with MOLT-4, in the experiment with ACHN, with PC-3 and in the experiment on SF-295 was < 0.01 µM (active) in each case. The GI50 in the experiment with HL-60, in the experiment on OVCAR-8, in the experiment with SF-539, with A498, in the experiment on EKVX and in the experiment with NCI-H226 was < 0.01 µM (active) each time. Also, the GI50 in the experiment on MDA-MB-231 and in the experiment with SR was < 0.01 µM (active) in each case.

`CC1=C(/C=C/C(C)=C/C=C/C(C)=C/C(=O)O)C(C)(C)CCC1` [TRETINOIN]: the GI50 was 48.8 µM (inactive) in the experiment on NCI-H460; > 58.5 µM (inactive) with MDA-MB-435; 44.3 µM (inactive) in the experiment on CCRF-CEM; 47.8 µM (inactive) in the experiment with SK-MEL-5; 46.6 µM (inactive) with OVCAR-3; 45.8 µM (inactive) in the experiment on SW-620. Moreover, the GI50 is 37.3 µM (inactive) with NCI/ADR-RES; 39.4 µM (inactive) with K562; 43.6 µM (inactive) in the experiment with MOLT-4; 48.5 µM (inactive) with ACHN; 39.6 µM (inactive) in the experiment on PC-3; 54.8 µM (inactive) in the experiment on SF-295. Moreover, the GI50 with HL-60 was 18 µM (inactive); in the experiment on OVCAR-8, > 65.3 µM (inactive); with SF-539, 48.6 µM (inactive); with A498 it was > 74.5 µM (inactive); in the experiment with EKVX, > 100 µM (inactive); with NCI-H226, 43.4 µM (inactive). The GI50 with MDA-MB-231 was 50.4 µM (inactive); in the experiment with SR, 47 µM (inactive).

The record behind these values is ChEMBL document CHEMBL1201862, “PubChem BioAssay data set” (2004).
